Reference: the supplement of paper PMC7796163
± gives the uncertainty stated by the source.

Assays:
Experiment in all cases: CYP enzyme activity (probe substrate metabolite formation) fold change vs solvent control; higher = stronger induction of CYP activity
Settings in all cases: HepaRG
CYP1A2 = target: T1, CYP1A2 (UniProt P05177)
T1 sequence (whole entry): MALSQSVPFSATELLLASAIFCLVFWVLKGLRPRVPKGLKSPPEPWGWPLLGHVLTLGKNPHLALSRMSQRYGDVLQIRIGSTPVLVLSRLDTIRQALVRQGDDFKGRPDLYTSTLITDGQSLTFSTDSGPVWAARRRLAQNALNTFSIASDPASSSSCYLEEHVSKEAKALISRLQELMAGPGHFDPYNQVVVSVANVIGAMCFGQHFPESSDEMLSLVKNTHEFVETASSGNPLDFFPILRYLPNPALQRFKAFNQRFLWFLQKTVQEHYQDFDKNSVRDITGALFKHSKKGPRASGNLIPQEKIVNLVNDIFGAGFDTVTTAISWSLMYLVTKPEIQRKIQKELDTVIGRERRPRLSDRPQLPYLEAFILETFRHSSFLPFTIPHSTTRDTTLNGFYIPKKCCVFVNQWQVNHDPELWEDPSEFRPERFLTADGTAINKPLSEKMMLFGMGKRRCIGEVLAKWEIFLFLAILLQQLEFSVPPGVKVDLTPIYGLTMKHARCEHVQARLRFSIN
Procedure: (§1)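 Differentiated HepaRG cells were treated with 1, 5 or 10 µM of each PAH (0.5% DMSO) for 12, 24 or 48 h, then incubated for 3 h at 37 °C with a cocktail of isoform-specific CYP substrates (phenacetin for CYP1A2, bupropion for CYP2B6, amodiaquine for CYP2C8, tolbutamide for CYP2C9, mephenytoin for CYP2C19, propafenone for CYP2D6, atorvastatin for CYP3A4). Metabolite formation was quantified by LC-MS as a measure of CYP activity and reported as fold change over solvent control (mean ± SD, n=3). Values below the LLOQ were set to half the LLOQ.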

CYP2D6 = CYP2D6 (UniProt P10635)
Sequence of CYP2D6 (P10635 whole entry): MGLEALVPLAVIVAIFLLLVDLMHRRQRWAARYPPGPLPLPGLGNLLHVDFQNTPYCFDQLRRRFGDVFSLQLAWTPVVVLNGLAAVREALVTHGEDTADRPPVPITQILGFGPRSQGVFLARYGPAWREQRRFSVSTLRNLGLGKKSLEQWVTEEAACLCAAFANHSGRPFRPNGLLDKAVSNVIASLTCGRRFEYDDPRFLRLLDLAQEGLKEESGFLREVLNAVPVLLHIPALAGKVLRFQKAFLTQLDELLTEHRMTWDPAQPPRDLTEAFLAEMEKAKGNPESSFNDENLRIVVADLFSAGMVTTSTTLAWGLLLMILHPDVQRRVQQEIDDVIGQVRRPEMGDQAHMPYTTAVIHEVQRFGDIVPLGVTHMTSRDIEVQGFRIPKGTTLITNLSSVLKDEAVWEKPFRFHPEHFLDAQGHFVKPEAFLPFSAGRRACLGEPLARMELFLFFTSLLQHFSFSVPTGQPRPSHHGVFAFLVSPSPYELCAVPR
Procedure: as §1

CYP2C9 = CYP2C9 (UniProt P11712)
Sequence of CYP2C9 (P11712 whole entry): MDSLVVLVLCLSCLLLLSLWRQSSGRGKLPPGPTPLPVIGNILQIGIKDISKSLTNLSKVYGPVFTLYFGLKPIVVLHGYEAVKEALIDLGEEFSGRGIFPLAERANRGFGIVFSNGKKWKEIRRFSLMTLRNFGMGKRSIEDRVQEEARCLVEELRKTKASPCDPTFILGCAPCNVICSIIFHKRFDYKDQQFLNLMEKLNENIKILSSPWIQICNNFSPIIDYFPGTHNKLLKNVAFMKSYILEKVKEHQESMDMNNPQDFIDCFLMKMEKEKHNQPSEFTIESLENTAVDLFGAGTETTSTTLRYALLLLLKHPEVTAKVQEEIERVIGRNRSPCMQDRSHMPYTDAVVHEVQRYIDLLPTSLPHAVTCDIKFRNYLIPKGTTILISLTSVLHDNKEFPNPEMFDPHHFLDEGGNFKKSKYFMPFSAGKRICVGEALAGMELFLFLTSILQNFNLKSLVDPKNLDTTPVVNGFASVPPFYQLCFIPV
Procedure: as §1

CYP3A4 = CYP3A4 (UniProt P08684)
Sequence of CYP3A4 (P08684 whole entry): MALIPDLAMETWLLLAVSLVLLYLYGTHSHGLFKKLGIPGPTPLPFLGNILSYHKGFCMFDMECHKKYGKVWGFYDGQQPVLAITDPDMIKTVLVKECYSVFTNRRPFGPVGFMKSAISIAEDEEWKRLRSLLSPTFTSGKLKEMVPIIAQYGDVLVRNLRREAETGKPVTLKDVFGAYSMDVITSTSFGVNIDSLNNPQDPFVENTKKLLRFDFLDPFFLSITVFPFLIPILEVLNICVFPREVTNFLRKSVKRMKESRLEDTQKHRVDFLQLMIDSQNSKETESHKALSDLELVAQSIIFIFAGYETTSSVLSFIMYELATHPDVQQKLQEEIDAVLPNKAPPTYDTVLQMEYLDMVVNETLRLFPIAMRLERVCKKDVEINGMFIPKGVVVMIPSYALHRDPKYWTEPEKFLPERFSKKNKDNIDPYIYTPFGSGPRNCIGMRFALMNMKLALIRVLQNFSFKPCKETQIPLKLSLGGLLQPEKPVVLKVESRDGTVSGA
Procedure: as §1

CYP2B6 = target: T2, CYP2B6 (UniProt P20813)
T2 sequence (whole entry): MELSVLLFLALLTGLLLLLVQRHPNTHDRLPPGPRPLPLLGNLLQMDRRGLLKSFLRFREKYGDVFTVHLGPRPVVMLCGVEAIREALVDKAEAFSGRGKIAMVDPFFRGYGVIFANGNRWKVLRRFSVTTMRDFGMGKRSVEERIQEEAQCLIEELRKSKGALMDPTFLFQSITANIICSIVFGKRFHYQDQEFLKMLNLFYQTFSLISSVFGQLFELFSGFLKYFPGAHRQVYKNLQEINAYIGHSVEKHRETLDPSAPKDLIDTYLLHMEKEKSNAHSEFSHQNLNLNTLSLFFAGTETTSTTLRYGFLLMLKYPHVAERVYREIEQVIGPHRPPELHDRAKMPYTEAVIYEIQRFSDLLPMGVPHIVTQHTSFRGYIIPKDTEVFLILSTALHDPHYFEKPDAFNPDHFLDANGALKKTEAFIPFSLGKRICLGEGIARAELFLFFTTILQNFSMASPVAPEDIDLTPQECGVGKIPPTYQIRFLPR
Procedure: as §1

CYP2C19 = CYP2C19 (UniProt P33261)
Sequence of CYP2C19 (P33261 whole entry): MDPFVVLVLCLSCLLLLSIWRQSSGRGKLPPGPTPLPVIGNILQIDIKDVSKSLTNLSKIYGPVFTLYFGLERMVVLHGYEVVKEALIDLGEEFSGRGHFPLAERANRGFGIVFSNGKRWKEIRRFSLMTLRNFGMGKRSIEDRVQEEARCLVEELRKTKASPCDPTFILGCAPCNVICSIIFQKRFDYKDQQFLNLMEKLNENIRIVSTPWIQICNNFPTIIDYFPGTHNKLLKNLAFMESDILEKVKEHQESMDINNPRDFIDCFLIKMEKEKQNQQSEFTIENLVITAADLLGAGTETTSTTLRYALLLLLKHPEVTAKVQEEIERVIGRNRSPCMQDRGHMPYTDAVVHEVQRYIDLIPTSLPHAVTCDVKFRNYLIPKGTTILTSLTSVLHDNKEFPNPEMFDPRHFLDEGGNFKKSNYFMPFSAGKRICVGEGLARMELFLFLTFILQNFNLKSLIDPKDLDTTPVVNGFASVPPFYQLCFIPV
Procedure: as §1

CYP2C8 = target: T3, CYP2C8 (UniProt P10632)
T3 sequence (whole entry): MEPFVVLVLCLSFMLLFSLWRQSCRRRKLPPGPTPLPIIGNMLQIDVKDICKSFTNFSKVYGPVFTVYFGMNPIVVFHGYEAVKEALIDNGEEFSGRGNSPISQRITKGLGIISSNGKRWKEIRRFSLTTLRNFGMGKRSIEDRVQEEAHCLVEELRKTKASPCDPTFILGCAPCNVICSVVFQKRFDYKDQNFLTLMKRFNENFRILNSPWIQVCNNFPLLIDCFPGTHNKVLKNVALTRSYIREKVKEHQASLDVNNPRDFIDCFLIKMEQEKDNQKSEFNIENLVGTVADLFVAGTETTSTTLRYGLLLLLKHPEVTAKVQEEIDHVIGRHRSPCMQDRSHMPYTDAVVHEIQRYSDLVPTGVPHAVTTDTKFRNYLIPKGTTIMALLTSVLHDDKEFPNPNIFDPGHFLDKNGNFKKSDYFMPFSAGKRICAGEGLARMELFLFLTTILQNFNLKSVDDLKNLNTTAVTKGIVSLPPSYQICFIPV
Procedure: as §1

c1ccc2c3c(ccc2c1)-c1cccc2cccc-3c12 [benzo[j]fluoranthene]
CYP enzyme activity
Settings	CYP1A2	CYP2B6	CYP2C8	CYP2C9	CYP2C19	CYP2D6	CYP3A4
1 µM, treatment time 12 h	3.57	1.02	0.921	0.852	0.86	1.28	0.809
1 µM, treatment time 24 h	2.09	1.27	0.903	0.88	0.826	0.87	0.702
1 µM, treatment time 48 h	1.1	0.856	0.974	0.835	0.948	0.759	0.666
5 µM, treatment time 12 h	6.59	1.21	0.894	0.826	0.97	1.94	0.883
5 µM, treatment time 24 h	12.1	2.01	0.779	0.844	0.9	1.61	0.728
5 µM, treatment time 48 h	4.57	1.32	0.798	0.734	0.882	0.711	0.694
10 µM, treatment time 12 h	1.21	1.04	0.785	0.731	0.84	1.13	0.916
10 µM, treatment time 24 h	23	2.03	0.751	0.771	0.867	2.94	0.715
10 µM, treatment time 48 h	9.96	1.83	0.688	0.75	0.914	0.838	0.636

c1ccc2cc3c(cc2c1)-c1cccc2cccc-3c12 [benzo[k]fluoranthene]
CYP enzyme activity
Settings	CYP1A2	CYP2B6	CYP2C8	CYP2C9	CYP2C19	CYP2D6	CYP3A4
1 µM, treatment time 12 h	7.62	0.673	0.918	0.808	0.834	1.93	0.73
1 µM, treatment time 24 h	15.3	0.763	0.793	0.744	0.702	1.9	0.633
1 µM, treatment time 48 h	25.3	0.806	0.812	0.704	0.832	1.36	0.544
5 µM, treatment time 12 h	9.06	0.751	0.875	0.76	0.854	2.35	0.89
5 µM, treatment time 24 h	17.8	0.806	0.682	0.67	0.723	2.71	0.676
5 µM, treatment time 48 h	27.3	0.574	0.278	0.396	0.577	1.62	0.342
10 µM, treatment time 12 h	5.83	0.741	0.759	0.725	0.76	2.05	0.93
10 µM, treatment time 24 h	16.9	0.923	0.625	0.594	0.754	2.98	0.732
10 µM, treatment time 48 h	17.5	0.446	0.164	0.312	0.455	1.49	0.283

c1ccc2c(c1)cc1ccc3cccc4c5ccccc5c2c1c34 [dibenzo[a,l]pyrene]
CYP enzyme activity
Settings	CYP1A2	CYP2B6	CYP2C8	CYP2C9	CYP2C19	CYP2D6	CYP3A4
1 µM, treatment time 12 h	2.04	0.84	1	0.921	0.768	1.11	0.927
1 µM, treatment time 24 h	1.35	0.906	0.987	0.918	0.823	0.798	0.778
1 µM, treatment time 48 h	0.763	0.735	0.78	0.804	0.763	0.552	0.619
5 µM, treatment time 12 h	1.61	0.611	0.644	0.753	0.741	1.28	0.768
5 µM, treatment time 24 h	2.27	1.19	0.714	0.89	0.781	0.791	0.672
5 µM, treatment time 48 h	0.603	0.584	0.326	0.472	0.53	0.288	0.385
10 µM, treatment time 12 h	0.515	0.313	0.627	0.395	0.469	1.19	0.543
10 µM, treatment time 24 h	1.39	1.22	0.639	0.732	0.689	0.789	0.471
10 µM, treatment time 48 h	0.286	0.354	0.166	0.233	0.257	0.212	0.118

c1ccc2c(c1)-c1cccc3cccc-2c13 [fluoranthene]
CYP enzyme activity
Settings	CYP1A2	CYP2B6	CYP2C8	CYP2C9	CYP2C19	CYP2D6	CYP3A4
1 µM, treatment time 12 h	1.01	1.2	1.01	1.02	0.972	0.989	0.901
1 µM, treatment time 24 h	0.943	1.58	1.06	1.09	0.974	0.981	0.98
1 µM, treatment time 48 h	1.07	2.05	1.14	1.18	1.1	0.91	1.03
5 µM, treatment time 12 h	1.33	1.35	0.987	1.17	1.09	1.16	1.01
5 µM, treatment time 24 h	1.09	2.28	1.07	1.3	1.16	1.11	1.16
5 µM, treatment time 48 h	1.27	3.59	1.14	1.34	1.26	1.06	1.28
10 µM, treatment time 12 h	1.41	1.25	0.988	1.15	0.999	1.18	1
10 µM, treatment time 24 h	1.07	2.01	1.04	1.11	0.995	1.08	1.03
10 µM, treatment time 48 h	1.312	3.74	1.2	1.39	1.22	1.06	1.35
